Experiments:
P2X purinoceptor 7 [1] = target: T1, P2X purinoceptor 7 (Homo sapiens, UniProt Q99572); experiment: Antagonist activity at human P2X7 receptor
T1 sequence (Q99572 whole entry): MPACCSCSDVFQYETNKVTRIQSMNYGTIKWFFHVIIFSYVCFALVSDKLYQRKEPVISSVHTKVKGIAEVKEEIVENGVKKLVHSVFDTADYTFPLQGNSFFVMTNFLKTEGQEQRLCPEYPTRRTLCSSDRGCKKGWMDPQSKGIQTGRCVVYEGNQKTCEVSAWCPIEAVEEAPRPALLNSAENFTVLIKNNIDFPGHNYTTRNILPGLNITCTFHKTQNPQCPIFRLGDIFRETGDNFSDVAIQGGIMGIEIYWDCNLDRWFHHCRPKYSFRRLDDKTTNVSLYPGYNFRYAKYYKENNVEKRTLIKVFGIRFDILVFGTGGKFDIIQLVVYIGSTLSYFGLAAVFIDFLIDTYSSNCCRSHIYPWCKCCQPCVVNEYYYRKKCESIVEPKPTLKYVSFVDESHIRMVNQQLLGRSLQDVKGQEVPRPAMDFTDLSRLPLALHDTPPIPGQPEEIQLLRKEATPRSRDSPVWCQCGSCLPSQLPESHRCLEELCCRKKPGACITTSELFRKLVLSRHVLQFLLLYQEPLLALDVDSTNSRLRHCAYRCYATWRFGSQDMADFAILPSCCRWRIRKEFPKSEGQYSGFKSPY

[2] = target: T2, P2X purinoceptor 7 (Mus musculus) (UniProt Q9Z1M0); experiment: Antagonist activity at P2X7 receptor in mouse Peritoneal macrophage cells assessed as ATP induced dye uptake at 10 uM relative to control; format: cell-based
T2 sequence (whole entry): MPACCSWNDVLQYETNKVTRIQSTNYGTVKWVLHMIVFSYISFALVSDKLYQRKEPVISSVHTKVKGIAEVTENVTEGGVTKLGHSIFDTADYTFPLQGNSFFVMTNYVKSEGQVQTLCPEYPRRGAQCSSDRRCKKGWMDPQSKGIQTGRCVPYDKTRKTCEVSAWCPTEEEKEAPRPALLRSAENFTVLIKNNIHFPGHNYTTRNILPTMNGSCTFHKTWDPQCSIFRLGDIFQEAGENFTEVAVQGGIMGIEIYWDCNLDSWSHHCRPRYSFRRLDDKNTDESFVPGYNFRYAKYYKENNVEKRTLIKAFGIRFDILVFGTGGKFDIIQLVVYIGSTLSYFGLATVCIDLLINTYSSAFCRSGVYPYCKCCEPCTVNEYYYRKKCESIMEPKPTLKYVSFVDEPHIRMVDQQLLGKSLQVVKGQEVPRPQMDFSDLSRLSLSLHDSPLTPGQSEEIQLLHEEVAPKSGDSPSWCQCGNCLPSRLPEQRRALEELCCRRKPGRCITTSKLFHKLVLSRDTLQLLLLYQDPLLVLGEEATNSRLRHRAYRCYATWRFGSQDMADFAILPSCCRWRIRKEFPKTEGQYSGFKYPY

P2X purinoceptor 7 [3] = target: T1, P2X purinoceptor 7; experiment: Antagonist activity at human P2X7 receptor expressed in HEK293 by fluorescence plate reader analysis; format: cell-based
P2X purinoceptor 7 [4] = target: T1, P2X purinoceptor 7; experiment: Antagonist activity at human P2X7 receptor expressed in 1321N1 cells by FLIPR assay; format: cell-based
P2X purinoceptor 7 [5] = target: T1, P2X purinoceptor 7; experiment: Inhibition of human P2X7 receptor transfected in HEK293 cells by calcium influx assay; format: cell-based
P2X purinoceptor 7 [6] = target: T1, P2X purinoceptor 7; experiment: Antagonist activity at human P2X7 receptor by calcium flux assay
P2X purinoceptor 7 [7] = target: T3, P2X purinoceptor 7 (Mus musculus, UniProt Q9Z1M0); experiment: Antagonist activity at mouse P2X7 receptor by calcium flux assay
T3 sequence (Q9Z1M0 whole entry): T2 sequence (whole entry)

P2X purinoceptor 7 [8] = target: T4, P2X purinoceptor 7 (Rattus norvegicus, UniProt Q64663); experiment: Antagonist activity at rat P2X7 receptor by calcium flux assay
T4 sequence (Q64663 whole entry): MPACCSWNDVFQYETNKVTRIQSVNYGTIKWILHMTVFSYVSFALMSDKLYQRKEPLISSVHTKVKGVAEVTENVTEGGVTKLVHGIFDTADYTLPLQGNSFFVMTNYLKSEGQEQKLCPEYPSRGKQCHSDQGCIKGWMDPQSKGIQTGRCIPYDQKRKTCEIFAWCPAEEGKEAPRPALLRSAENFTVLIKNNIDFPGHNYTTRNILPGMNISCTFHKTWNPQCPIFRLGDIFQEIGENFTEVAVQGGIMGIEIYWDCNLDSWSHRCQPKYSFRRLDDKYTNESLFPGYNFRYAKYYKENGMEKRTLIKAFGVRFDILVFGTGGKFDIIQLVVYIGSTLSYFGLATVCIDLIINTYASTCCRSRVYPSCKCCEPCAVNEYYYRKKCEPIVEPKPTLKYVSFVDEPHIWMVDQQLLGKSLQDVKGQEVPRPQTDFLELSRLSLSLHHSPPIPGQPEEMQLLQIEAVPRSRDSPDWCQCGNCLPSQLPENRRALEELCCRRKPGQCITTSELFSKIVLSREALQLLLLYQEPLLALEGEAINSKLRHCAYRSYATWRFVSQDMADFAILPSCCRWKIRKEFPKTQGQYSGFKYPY

P2X purinoceptor 7 [9] = target: T3, P2X purinoceptor 7; experiment: Antagonist activity at P2X7 receptor in mouse Peritoneal macrophage cells assessed as reduction in ATP induced IL-1 beta release; format: cell-based
P2X purinoceptor 7 [10] = target: T1, P2X purinoceptor 7; experiment: Antagonist activity at P2X7 receptor in human THP-1 cells assessed as reduction in ATP induced IL-1 beta release; format: cell-based

`COc1nc(C)c(Nc2nc(=O)c3[nH]cnc3n2Cc2ccc(F)c(F)c2)cc1C` gave an IC50 (P2X purinoceptor 7 [1]) of less than 0.01 µM.

Compound `CC1=C(C(c2ccc(Br)cc2)n2cc(COCc3ccco3)nn2)C(=O)c2ccccc2C1=O` (stereo not drawn) has an inhibition [2] of less than 60%.

`COCCn1cc(C(=O)NCc2ccc3c(c2)OCO3)c2c(Cl)cccc21` showed an IC50 (P2X purinoceptor 7 [3]) greater than 1 µM.

Work on `Cc1ccc(OCCO)cc1Nc1nc(=O)cnn1Cc1cc(F)c(F)c(F)c1` yielded an IC50 (P2X purinoceptor 7 [4]) of 0.0097 µM.

For `CS(=O)(=O)C1CC[C@@](F)(C(=O)NCc2ccc(Cl)cc2Cl)c2cccnc21` (stereo partly drawn), the IC50 (P2X purinoceptor 7 [5]) was less than 0.05 µM.

Work on `O=c1onc(Cc2ccc(Cl)cc2Cl)n1CC1CCC(F)(F)CC1` yielded an IC50 (P2X purinoceptor 7 [6]) of less than 0.2 µM, an IC50 (P2X purinoceptor 7 [7]) of 0.2 µM and an IC50 (P2X purinoceptor 7 [8]) of less than 0.2 µM.

With `COc1cnc(C)c(Nc2nc(=O)c3c(n2Cc2cc(F)c(F)c(F)c2)CCC3)c1` the IC50 (P2X purinoceptor 7 [1]) was 0.1 µM.

In the case of `COc1ccc(Cc2noc(=O)n2CC2CCC(F)(F)CC2)cc1`, the IC50 (P2X purinoceptor 7 [6]) is reported as 1 µM, the IC50 (P2X purinoceptor 7 [7]) is reported as 1 µM and the IC50 (P2X purinoceptor 7 [8]) is reported as 1 µM.

Compound `CC1=C(C(c2ccc([N+](=O)[O-])cc2)n2cc(COCc3ccco3)nn2)C(=O)c2ccccc2C1=O` (stereo not drawn) has an inhibition ([2]; filed as antagonist) of 60%, an IC50 (P2X purinoceptor 7 [9]) of 187 µM and an IC50 (P2X purinoceptor 7 [10]) of 183 µM.

Work on `O=C(NCc1cccc(C(F)(F)F)c1Cl)C1(F)CCC(O)c2ncccc21` (stereo not drawn) yielded an IC50 (P2X purinoceptor 7 [5]) of less than 0.05 µM.

`Cc1nc2cc(C)c(Nc3nc(=O)cc4n3C(c3ccc(F)cc3)CC4)cc2s1` (stereo not drawn) gave an IC50 (P2X purinoceptor 7 [1]) of less than 0.01 µM.

In the case of `O=C(NCc1ccc(Cl)cc1Cl)[C@@]1(F)CC[C@](O)(CN2CC(O)C2)c2ncccc21`, the IC50 (P2X purinoceptor 7 [5]) is reported as less than 0.05 µM.

With `COc1ccc(Nc2nc(=O)c3onc(C)c3n2Cc2ccc(F)c(F)c2)c(C)c1` the IC50 (P2X purinoceptor 7 [1]) was less than 0.01 µM.

`Cc1cc(Nc2nc(=O)c3[nH]cnc3n2Cc2ccccc2)c(C)cc1Cl` was tested, and the IC50 (P2X purinoceptor 7 [1]) was less than 0.01 µM.

`COCCn1cc(C(=O)NCc2ccco2)c2c(Cl)cccc21` was tested, and the IC50 (P2X purinoceptor 7 [3]) was greater than 1 µM.

Work on `Cc1ccc(-c2ncco2)cc1Nc1nc(=O)cnn1Cc1cc(F)c(F)c(F)c1` yielded an IC50 (P2X purinoceptor 7 [4]) of 0.0024 µM.

`COCCn1cc(C(=O)NC[C@@]2(O)CCCC(F)(F)C2)c2c(Cl)cccc21` was tested, and the IC50 (P2X purinoceptor 7 [3]) was less than 0.01 µM.

In the case of `O=c1onc(CN2CCOc3ccccc32)n1CC1CCC(F)(F)CC1`, the IC50 (P2X purinoceptor 7 [6]) is reported as less than 0.2 µM, the IC50 (P2X purinoceptor 7 [7]) is reported as less than 0.2 µM and the IC50 (P2X purinoceptor 7 [8]) is reported as less than 0.2 µM.

`Cc1nc2cc(C)c(Nc3nc(=O)c4[nH]cnc4n3Cc3ccc(F)cc3)cc2s1` showed an IC50 (P2X purinoceptor 7 [1]) of 0.011 µM.

For `Cc1ccc(Cn2c(Nc3cc4sc(C)nc4cc3C)nc(=O)c3[nH]cnc32)cc1`, the IC50 (P2X purinoceptor 7 [1]) was 0.5 µM.

`C[C@H]1CCC[C@@](O)(CNC(=O)c2cn(CCC(F)F)c3cccc(Cl)c23)C1` was tested, and the IC50 (P2X purinoceptor 7 [3]) was less than 0.01 µM.

`COc1ccc(C)c(Nc2nc(=O)cnn2Cc2cncc(F)c2)c1` showed an IC50 (P2X purinoceptor 7 [4]) of 0.1 µM.

`O=c1onc(CN2CCC(F)(F)CC2)n1CC1CCC(F)(F)CC1` was tested, and the IC50 (P2X purinoceptor 7 [6]) was greater than 10 µM, the IC50 (P2X purinoceptor 7 [7]) was greater than 10 µM and the IC50 (P2X purinoceptor 7 [8]) was greater than 10 µM.

For `Cc1ccc(CO)cc1Nc1nc(=O)ccn1Cc1cc(F)c(F)c(F)c1`, the IC50 (P2X purinoceptor 7 [4]) was 0.004 µM.

`Cc1c(Cl)cccc1Nc1nc(=O)cc2n1C(c1ccccc1)CO2` (stereo not drawn) showed an IC50 (P2X purinoceptor 7 [1]) of less than 0.01 µM.

With `CC1=C(C(C)n2cc(COCc3ccco3)nn2)C(=O)c2ccccc2C1=O` (stereo not drawn) the inhibition [2] was less than 60%.

In the case of `Cn1nccc1Nc1nc(=O)c(F)cn1Cc1cc(F)c(F)c(F)c1`, the IC50 (P2X purinoceptor 7 [4]) is reported as greater than 0.1 µM.

`CC1CC(F)(F)CCN1Cn1c(Cc2c(F)cccc2Cl)noc1=O` (stereo not drawn) showed an IC50 (P2X purinoceptor 7 [6]) of less than 0.2 µM, an IC50 (P2X purinoceptor 7 [7]) of less than 0.2 µM and an IC50 (P2X purinoceptor 7 [8]) of less than 0.2 µM.

Compound `CC1=C(C(c2ccc(F)cc2)n2cc(COCc3ccco3)nn2)C(=O)c2ccccc2C1=O` (stereo not drawn) has an inhibition [2] of less than 60%.

Work on `COCCn1cc(C(=O)NCc2nc3ccccc3s2)c2c(Cl)cccc21` yielded an IC50 (P2X purinoceptor 7 [3]) greater than 1 µM.

`Cc1c(Cl)cccc1Nc1nc(=O)cc2n1C(c1ccccc1)CC2` (stereo not drawn) showed an IC50 (P2X purinoceptor 7 [1]) of less than 0.01 µM.

Source: ChEMBL document CHEMBL5360537, “From lead to clinic: A review of the structural design of P2X7R antagonists” (Eur J Med Chem, 2023)
